According to US20100298136A1, “ACTIVE INGREDIENT COMBINATIONS WITH INSECTICIDAL PROPERTIES” (BAYER CROPSCIENCE AG, priority 2006, published 2010):

Tests used:
[1] = system: green peach aphid (Myzus persicae); assay: Myzus persicae test (cabbage leaf dip); type: in vivo; details: single active compound, 0.16 ppm
Description: (§1) Solvent: 7 parts by weight of dimethylformamide Emulgator: 2 parts by weight of alkylaryl polyglycol ether
(§2) To produce a suitable preparation of active compound, 1 part by weight of active compound is mixed with the stated amounts of solvent and emulsifier, and the concentrate is diluted with water to the desired concentration.
Cabbage leaves (Brassica oleracea) which are heavily infested by the green peach aphid (Myzus persicae) are treated by being dipped into the preparation of active compound of the desired concentration.
After the desired period of time, the kill in % is determined. 100% means that all aphids have been killed; 0% means that none of the aphids have been killed. The kill rates determined are entered into the Colby formula (see sheet 1).

[2] = system: larvae of the mustard beetle (Phaedon cochleariae); assay: Phaedon cochleariae larvae test (cabbage leaf dip); type: in vivo; details: single active compound
Description: Phaedon cochleariae Larvae Test
as §1, §2
Cabbage leaves (Brassica oleracea) are treated by being dipped into the preparation of active compound of the desired concentration and populated with larvae of the mustard beetle (Phaedon cochleariae) while the leaves are still moist.
After the desired period of time, the kill in % is determined. 100% means that all beetle larvae have been killed; 0% means that none of the beetle larvae have been killed. The kill rates determined are entered into the Colby formula (see sheet 1).

SMILES | Kill in % after 6d [1] | Kill in % after 4d ([2]; 20 ppm) | Kill in % after 4d ([2]; 4 ppm)
O=[N+]([O-])/N=C1\NCCN1Cc1ccc(Cl)nc1 [imidacloprid, reference compound] | 20% | 53% | 
CN(Cc1ccc(Cl)nc1)C1=CC(=O)OC1 [compound (Ia)] | 10% | 16% | 5%
